According to ChEMBL document CHEMBL1139446, “4,5-Disubstituted-1,3-oxazolidin-2-imine derivatives: a new class of orally bioavailable nitric oxide synthase inhibitor” (Bioorg Med Chem Lett, 2004):

What was measured:
Mus musculus = organism: Mus musculus; test: Selectivity ratio of IC50 of nNOS to IC50 of iNOS
[1] = molecular target: T1, Nitric oxide synthase, inducible (Mus musculus, UniProt P29477); test: (§1) Inhibition of inducible nitric oxide synthase (iNOS) in mice
T1 sequence (P29477 whole entry): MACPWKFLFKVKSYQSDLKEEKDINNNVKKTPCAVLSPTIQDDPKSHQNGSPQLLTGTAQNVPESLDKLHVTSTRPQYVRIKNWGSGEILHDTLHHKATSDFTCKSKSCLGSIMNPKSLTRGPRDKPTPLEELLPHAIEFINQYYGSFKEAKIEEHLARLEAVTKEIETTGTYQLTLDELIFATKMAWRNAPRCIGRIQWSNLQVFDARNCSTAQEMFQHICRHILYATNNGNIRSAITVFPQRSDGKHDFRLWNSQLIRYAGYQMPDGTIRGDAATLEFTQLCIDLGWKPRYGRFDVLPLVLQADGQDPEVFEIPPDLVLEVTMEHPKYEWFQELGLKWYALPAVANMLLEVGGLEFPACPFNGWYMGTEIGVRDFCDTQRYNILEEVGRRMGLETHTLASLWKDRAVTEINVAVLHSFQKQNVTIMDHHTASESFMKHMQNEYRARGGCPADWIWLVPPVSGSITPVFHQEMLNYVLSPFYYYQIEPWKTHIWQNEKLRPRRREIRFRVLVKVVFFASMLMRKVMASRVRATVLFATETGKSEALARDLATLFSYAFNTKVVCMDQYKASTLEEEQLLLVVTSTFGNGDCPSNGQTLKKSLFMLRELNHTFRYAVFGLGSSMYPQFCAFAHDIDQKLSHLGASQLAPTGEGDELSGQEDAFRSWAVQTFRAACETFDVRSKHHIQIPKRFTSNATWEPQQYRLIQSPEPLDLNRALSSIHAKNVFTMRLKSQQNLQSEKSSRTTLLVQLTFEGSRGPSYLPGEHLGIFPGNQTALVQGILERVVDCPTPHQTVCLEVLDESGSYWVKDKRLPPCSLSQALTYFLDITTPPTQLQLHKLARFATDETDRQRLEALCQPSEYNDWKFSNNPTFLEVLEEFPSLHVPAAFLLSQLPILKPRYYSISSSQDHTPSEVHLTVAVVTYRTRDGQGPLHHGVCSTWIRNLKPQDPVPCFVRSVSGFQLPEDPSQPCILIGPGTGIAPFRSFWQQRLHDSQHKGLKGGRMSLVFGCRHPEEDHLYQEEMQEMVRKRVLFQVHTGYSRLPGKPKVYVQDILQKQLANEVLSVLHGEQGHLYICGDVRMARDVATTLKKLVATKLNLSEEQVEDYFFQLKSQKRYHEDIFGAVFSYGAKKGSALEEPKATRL

Nitric oxide synthase 1 = Nitric oxide synthase 1 (Mus musculus, UniProt Q9Z0J4); test: (§2) Inhibition of neuronal nitric oxide synthase (nNOS) in mice
Chain of Nitric oxide synthase 1 (Q9Z0J4 whole entry): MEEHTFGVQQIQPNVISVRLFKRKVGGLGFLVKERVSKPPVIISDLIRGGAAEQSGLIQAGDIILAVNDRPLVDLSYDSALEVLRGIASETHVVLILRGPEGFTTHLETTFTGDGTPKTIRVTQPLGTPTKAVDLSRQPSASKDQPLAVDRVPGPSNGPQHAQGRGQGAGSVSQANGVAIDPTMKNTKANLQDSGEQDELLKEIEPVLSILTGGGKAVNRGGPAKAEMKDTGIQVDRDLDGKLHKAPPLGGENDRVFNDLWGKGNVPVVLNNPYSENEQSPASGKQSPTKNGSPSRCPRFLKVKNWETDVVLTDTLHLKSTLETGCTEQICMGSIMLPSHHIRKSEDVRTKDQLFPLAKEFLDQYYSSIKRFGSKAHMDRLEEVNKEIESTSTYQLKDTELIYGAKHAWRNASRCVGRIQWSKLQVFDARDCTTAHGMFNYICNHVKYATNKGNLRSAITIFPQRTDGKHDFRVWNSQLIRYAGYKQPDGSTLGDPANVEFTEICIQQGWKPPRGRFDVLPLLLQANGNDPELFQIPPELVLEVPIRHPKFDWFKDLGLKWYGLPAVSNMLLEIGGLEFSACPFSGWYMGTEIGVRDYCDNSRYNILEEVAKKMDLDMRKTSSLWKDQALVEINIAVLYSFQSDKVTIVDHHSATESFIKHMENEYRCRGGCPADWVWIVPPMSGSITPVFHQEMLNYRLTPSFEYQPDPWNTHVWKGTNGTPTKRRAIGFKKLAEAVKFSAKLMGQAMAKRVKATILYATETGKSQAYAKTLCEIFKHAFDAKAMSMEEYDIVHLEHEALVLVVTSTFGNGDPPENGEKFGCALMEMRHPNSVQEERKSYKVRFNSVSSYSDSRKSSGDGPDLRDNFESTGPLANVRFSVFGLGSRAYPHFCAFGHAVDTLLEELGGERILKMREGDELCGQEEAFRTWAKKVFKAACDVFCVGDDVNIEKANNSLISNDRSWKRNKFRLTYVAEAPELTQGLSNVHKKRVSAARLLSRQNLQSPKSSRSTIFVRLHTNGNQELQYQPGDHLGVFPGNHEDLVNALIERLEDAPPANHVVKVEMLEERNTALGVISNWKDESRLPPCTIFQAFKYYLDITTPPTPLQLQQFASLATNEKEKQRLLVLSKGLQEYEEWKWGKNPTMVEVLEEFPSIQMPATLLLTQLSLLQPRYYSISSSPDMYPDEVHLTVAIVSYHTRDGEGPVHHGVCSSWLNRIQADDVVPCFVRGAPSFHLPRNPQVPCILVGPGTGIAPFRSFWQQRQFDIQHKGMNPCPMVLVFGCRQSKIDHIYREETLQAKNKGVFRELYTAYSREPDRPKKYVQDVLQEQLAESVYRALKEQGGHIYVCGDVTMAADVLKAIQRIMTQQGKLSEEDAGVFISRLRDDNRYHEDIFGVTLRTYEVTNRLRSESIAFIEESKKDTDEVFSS

[2] = molecular target: T2, Nitric oxide synthase, inducible (Mus musculus) (UniProt P29477); test: as §1; conditions: concentration not given here
T2 sequence (whole entry): T1 sequence (P29477 whole entry)

[3] = molecular target: Nitric oxide synthase 1 (Mus musculus) (UniProt Q9Z0J4); test: as §2; conditions: concentration not given here
Chain of Nitric oxide synthase 1 (Mus musculus) (Q9Z0J4 whole entry): as above

In the case of `CC[C@@H]1N=C(N)O[C@H]1CC`, the Selectivity (Mus musculus) is reported as 45, the IC50 [1] is reported as 56 nM and the IC50 (Nitric oxide synthase 1) is reported as 2500 nM.
`NC1=NC(c2ccccc2)CO1` (stereo not given) was tested, and the inhibition [2] was 28% and the inhibition [3] was 18%.
In the case of `N=C(NCCC[C@H](N)C(=O)O)N[N+](=O)[O-]` [NITROARGININE], the Selectivity (Mus musculus) is reported as 0.0063, the IC50 [1] is reported as 80000 nM and the IC50 (Nitric oxide synthase 1) is reported as 500 nM.
Work on `CCC1CN=C(N)O1` (stereo not given) yielded a Selectivity (Mus musculus) of 6.4, an IC50 [1] of 280 nM and an IC50 (Nitric oxide synthase 1) of 1800 nM.
`CC[C@@H]1N=C(N)O[C@@H]1CC` gave an IC50 [1] of 130 nM and an IC50 (Nitric oxide synthase 1) of 1200 nM.
With `CCC[C@@H]1N=C(N)O[C@@H]1CCC` the Selectivity (Mus musculus) was 8.4, the IC50 [1] was 6800 nM and the IC50 (Nitric oxide synthase 1) was 57000 nM.
With `CC[C@@H]1OC(N)=N[C@H]1C` the Selectivity (Mus musculus) was 14, the IC50 [1] was 120 nM and the IC50 (Nitric oxide synthase 1) was 1700 nM.
`CC[C@@H]1N=C(N)O[C@@H]1C` showed a Selectivity (Mus musculus) of 5.7, an IC50 [1] of 120 nM and an IC50 (Nitric oxide synthase 1) of 680 nM.
`CC[C@H]1OC(N)=N[C@H]1C` showed a Selectivity (Mus musculus) of 5.3, an IC50 [1] of 160 nM and an IC50 (Nitric oxide synthase 1) of 850 nM.
`CNC(=N)NCCC[C@H](N)C(=O)O` [TILARGININE] showed an IC50 (Nitric oxide synthase 1) of 4300 nM.
`CCC[C@@H]1N=C(N)O[C@@H]1C` gave a Selectivity (Mus musculus) of 22, an IC50 [1] of 41 nM and an IC50 (Nitric oxide synthase 1) of 920 nM.
For `CCCCC[C@@H]1N=C(N)O[C@@H]1C`, the Selectivity (Mus musculus) was 16, the IC50 [1] was 230 nM and the IC50 (Nitric oxide synthase 1) was 3600 nM.
Compound `C[C@H]1CC(N)=N[C@@H]2[C@H](Cl)[C@@H]21` has a Selectivity (Mus musculus) of 5.
`CC[C@@H]1N=C(N)O[C@H]1C` was tested, and the Selectivity (Mus musculus) was 14, the IC50 [1] was 170 nM and the IC50 (Nitric oxide synthase 1) was 2300 nM.
`NC1=NCC(CBr)O1` (stereo not given) gave a Selectivity (Mus musculus) of 0.8, an IC50 [1] of 500 nM and an IC50 (Nitric oxide synthase 1) of 400 nM.
In the case of `CC1COC(N)=N1` (stereo not given), the Selectivity (Mus musculus) is reported as 6.5, the IC50 [1] is reported as 1500 nM and the IC50 (Nitric oxide synthase 1) is reported as 9800 nM.
With `C[C@@H]1N=C(N)O[C@@H]1C` the Selectivity (Mus musculus) was 11, the IC50 [1] was 150 nM and the IC50 (Nitric oxide synthase 1) was 1600 nM.
`CCC[C@@H]1N=C(N)O[C@H]1C` showed a Selectivity (Mus musculus) of 4.8, an IC50 [1] of 120 nM and an IC50 (Nitric oxide synthase 1) of 570 nM.
`CCC1COC(N)=N1` (stereo not given) gave a Selectivity (Mus musculus) of 1.8, an IC50 [1] of 1600 nM and an IC50 (Nitric oxide synthase 1) of 2800 nM.
`NC1=NCCO1` was tested, and the Selectivity (Mus musculus) was 4.3, the IC50 [1] was 7900 nM and the IC50 (Nitric oxide synthase 1) was 34000 nM.
`CCC[C@@H]1N=C(N)O[C@H]1CCC` gave a Selectivity (Mus musculus) of 29, an IC50 [1] of 2500 nM and an IC50 (Nitric oxide synthase 1) of 73000 nM.
`C[C@H]1CC(=N)N[C@@H]2[C@H](Cl)[C@@H]21` gave an IC50 [1] of 3 nM and an IC50 (Nitric oxide synthase 1) of 15 nM.
`CCCCC[C@@H]1N=C(N)O[C@H]1C` was tested, and the Selectivity (Mus musculus) was 1.6, the IC50 [1] was 500 nM and the IC50 (Nitric oxide synthase 1) was 790 nM.
Compound `CC1CN=C(N)O1` (stereo not given) has a Selectivity (Mus musculus) of 19, an IC50 [1] of 74 nM and an IC50 (Nitric oxide synthase 1) of 1400 nM.
